Source: PMC8333425, “Discovery of a dual Ras and ARF6 inhibitor from a GPCR endocytosis screen” (Nature Communications, 2021)

Columns and labels:
Assay in all cases: KINOMEscan kinase binding assay
[1] = target: T1, 384 kinases from the human genome (Homo sapiens, UniProt Q06187); conditions: kinase BTK (Entrez BTK)
T1 construct: purchased Eurofin/DiscoverX
From the text: (§1) We reasoned that because internalizing AT1R and its targeting to intracellular compartments can support continued MAPK signaling, and since 21 inhibits receptor internalization, it should also impede to some extent ERK1/2 activation. […] Receptor-mediated ERK1/2 signaling can involve upstream kinases such as PKC, BRAF, and MEK1[35],[36]. […] To exclude other kinases potentially involved in ERK1/2 and Akt activation as targets of 21, we ran a kinase binding assay (KINOMEscan™) on 384 kinases from the human genome. Remarkably, a very high selectivity score S(10) of 0.008 was found (Supplementary Data 3).
(§2) The chemical library used for initial screening was from Chembridge DiverSet™ (60,000 compounds), Maybridge HitFinder™ (16,000 compounds), Maybridge (selected, 16,000 compounds), SPECS (selected, 16000 compounds), Microsource Discovery Spectrum (2000 compounds), Biomol (natural products, 500 compounds), Prestwick (commercialized products, 1120 compounds), SIGMA LopacTM (1280 compounds) and internal collection (synthesized at Université de Montréal-IRIC, ~4000 compounds). Compounds were all assigned an Université de Montréal number (UM) for internal use. Screen was performed at IRIC HTS facility. KINOMEscan™ profiling was serviced by Eurofin/DiscoverX (San Diego, USA).
(§3) Description of Additional Supplementary Files […]
(§4) File Name: Supplementary Data 3
(§5) Description: KINOMEscan results. Compound 21’s effect was tested on 384 kinases. Data represent kinases binding to their ligands in presence of 10 µM of 21, as compared to DMSO (100%). Results are from one experiment and represent the average of duplicates. Three kinases (FLT3, KIT, and PDGFRB) out of 384 were more than 90% affected (selectivity score S(10) of 0.008). […]

[2] = target: T2, 384 kinases from the human genome (Homo sapiens, UniProt Q09013); conditions: kinase DMPK (Entrez DMPK)
T2 construct: purchased Eurofin/DiscoverX
From the text: as §1, §2, §3, §4, §5

[3] = target: T3, 384 kinases from the human genome (Homo sapiens, UniProt P48729); conditions: kinase CSNK1A1 (Entrez CSNK1A1)
T3 construct: purchased Eurofin/DiscoverX
From the text: as §1, §2, §3, §4, §5

[4] = target: T4, 384 kinases from the human genome (Homo sapiens, UniProt Q96GD4); conditions: kinase AURKB (Entrez AURKB)
T4 construct: purchased Eurofin/DiscoverX
T4 sequence (Q96GD4 whole entry): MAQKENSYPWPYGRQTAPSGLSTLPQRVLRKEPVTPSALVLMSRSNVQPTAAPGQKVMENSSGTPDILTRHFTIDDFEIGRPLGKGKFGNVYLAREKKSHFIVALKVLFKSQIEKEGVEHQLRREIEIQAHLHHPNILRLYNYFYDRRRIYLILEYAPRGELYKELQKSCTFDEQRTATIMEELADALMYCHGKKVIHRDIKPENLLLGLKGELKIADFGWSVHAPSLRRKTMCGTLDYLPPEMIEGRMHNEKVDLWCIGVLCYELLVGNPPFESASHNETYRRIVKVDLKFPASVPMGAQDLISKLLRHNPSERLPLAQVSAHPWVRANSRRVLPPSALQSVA
From the text: as §1, §2, §3, §4, §5

[5] = target: T5, 384 kinases from the human genome (Homo sapiens, UniProt P35916); conditions: kinase FLT4 (Entrez FLT4)
T5 construct: purchased Eurofin/DiscoverX
From the text: as §1, §2, §3, §4, §5

[6] = target: T6, 384 kinases from the human genome (Homo sapiens, UniProt O15075); conditions: kinase DCAMKL1 (Entrez DCLK1)
T6 construct: purchased Eurofin/DiscoverX
T6 sequence (O15075 whole entry): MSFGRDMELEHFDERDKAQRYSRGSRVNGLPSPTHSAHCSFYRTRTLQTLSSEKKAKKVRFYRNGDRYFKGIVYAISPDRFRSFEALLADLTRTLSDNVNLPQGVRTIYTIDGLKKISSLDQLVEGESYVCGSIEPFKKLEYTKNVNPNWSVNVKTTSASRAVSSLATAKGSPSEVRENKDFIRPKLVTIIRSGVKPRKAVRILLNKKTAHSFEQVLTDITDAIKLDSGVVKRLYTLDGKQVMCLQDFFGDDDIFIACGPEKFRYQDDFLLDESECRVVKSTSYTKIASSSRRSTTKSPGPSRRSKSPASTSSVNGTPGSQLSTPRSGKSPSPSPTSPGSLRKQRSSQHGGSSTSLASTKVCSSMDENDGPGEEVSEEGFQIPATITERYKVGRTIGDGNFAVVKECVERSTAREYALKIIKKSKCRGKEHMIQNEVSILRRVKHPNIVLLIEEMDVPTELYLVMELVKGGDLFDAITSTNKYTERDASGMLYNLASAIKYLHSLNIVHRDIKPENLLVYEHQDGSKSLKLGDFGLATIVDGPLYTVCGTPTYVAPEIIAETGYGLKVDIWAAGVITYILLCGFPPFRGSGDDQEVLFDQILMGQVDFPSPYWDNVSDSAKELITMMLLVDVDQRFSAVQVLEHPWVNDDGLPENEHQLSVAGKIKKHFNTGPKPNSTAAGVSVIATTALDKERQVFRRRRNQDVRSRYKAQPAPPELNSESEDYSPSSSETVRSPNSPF
From the text: as §1, §2, §3, §4, §5

[7] = target: T7, 384 kinases from the human genome (Homo sapiens, UniProt O00141); conditions: kinase SGK (Entrez SGK1)
T7 construct: purchased Eurofin/DiscoverX
From the text: as §1, §2, §3, §4, §5

[8] = target: T8, 384 kinases from the human genome (Homo sapiens, UniProt P42338); conditions: kinase PIK3CB (Entrez PIK3CB)
T8 construct: purchased Eurofin/DiscoverX
T8 sequence (P42338 whole entry): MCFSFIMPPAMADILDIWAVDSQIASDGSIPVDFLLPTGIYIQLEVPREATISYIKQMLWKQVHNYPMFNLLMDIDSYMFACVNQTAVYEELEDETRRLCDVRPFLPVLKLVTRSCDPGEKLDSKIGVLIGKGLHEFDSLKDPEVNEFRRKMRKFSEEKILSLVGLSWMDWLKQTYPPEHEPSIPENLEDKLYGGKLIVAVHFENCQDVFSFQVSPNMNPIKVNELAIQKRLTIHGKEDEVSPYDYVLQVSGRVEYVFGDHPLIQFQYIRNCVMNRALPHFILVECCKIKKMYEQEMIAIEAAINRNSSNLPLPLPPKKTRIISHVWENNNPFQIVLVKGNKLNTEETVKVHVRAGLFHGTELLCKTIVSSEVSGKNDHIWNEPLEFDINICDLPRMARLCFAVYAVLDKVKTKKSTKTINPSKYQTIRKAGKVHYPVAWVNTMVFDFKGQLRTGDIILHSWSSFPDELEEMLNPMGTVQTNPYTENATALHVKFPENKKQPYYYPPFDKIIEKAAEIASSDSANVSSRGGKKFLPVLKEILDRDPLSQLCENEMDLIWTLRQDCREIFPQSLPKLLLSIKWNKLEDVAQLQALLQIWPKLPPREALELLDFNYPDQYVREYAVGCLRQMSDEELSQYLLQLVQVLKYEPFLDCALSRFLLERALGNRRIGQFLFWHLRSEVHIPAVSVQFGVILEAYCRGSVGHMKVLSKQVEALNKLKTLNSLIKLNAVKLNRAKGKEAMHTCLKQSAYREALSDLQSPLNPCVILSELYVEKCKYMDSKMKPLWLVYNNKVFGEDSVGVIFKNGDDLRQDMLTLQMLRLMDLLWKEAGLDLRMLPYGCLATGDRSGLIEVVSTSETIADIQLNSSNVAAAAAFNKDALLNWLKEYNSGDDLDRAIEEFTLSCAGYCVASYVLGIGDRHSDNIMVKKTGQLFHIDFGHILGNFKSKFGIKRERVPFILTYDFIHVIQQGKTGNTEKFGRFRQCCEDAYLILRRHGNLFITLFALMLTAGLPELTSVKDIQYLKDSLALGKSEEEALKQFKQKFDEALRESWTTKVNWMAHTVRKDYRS
From the text: as §1, §2, §3, §4, §5

[9] = target: T9, 384 kinases from the human genome (Homo sapiens, UniProt O96017); conditions: kinase CHEK2 (Entrez CHEK2)
T9 construct: purchased Eurofin/DiscoverX
T9 sequence (O96017 whole entry): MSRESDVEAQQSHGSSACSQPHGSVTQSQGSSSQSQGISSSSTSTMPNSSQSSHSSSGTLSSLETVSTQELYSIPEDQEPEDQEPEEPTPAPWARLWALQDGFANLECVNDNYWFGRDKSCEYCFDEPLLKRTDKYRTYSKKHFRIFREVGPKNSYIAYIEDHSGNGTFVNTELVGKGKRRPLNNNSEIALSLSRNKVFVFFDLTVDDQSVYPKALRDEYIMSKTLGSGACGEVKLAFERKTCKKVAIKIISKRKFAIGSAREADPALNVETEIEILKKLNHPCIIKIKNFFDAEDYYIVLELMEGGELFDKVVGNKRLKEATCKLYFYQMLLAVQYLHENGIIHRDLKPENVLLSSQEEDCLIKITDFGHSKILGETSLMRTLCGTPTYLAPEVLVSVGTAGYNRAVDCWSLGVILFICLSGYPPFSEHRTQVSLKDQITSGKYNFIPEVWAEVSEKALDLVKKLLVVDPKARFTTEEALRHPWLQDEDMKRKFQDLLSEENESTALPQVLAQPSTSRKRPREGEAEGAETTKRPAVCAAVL
From the text: as §1, §2, §3, §4, §5

[10] = target: T10, 384 kinases from the human genome (Homo sapiens, UniProt P22694); conditions: kinase PKAC-beta (Entrez PRKACB)
T10 construct: purchased Eurofin/DiscoverX
From the text: as §1, §2, §3, §4, §5

[11] = target: T11, 384 kinases from the human genome (Homo sapiens, UniProt Q9H422); conditions: kinase HIPK3 (Entrez HIPK3)
T11 construct: purchased Eurofin/DiscoverX
From the text: as §1, §2, §3, §4, §5

[12] = target: T12, 384 kinases from the human genome (Homo sapiens, UniProt Q9NRH2); conditions: kinase SNRK (Entrez SNRK)
T12 construct: purchased Eurofin/DiscoverX
From the text: as §1, §2, §3, §4, §5

[13] = target: T13, 384 kinases from the human genome (Homo sapiens, UniProt P51956); conditions: kinase NEK3 (Entrez NEK3)
T13 construct: purchased Eurofin/DiscoverX
From the text: as §1, §2, §3, §4, §5

[14] = target: T14, 384 kinases from the human genome (Homo sapiens, UniProt P11309); conditions: kinase PIM1 (Entrez PIM1)
T14 construct: purchased Eurofin/DiscoverX
From the text: as §1, §2, §3, §4, §5

[15] = target: T15, 384 kinases from the human genome (Homo sapiens, UniProt P20794); conditions: kinase MAK (Entrez MAK)
T15 construct: purchased Eurofin/DiscoverX
From the text: as §1, §2, §3, §4, §5

[16] = target: T16, 384 kinases from the human genome (Homo sapiens, UniProt Q12851); conditions: kinase MAP4K2 (Entrez MAP4K2)
T16 construct: purchased Eurofin/DiscoverX
From the text: as §1, §2, §3, §4, §5

[17] = target: T17, 384 kinases from the human genome (Homo sapiens, UniProt O15146); conditions: kinase MUSK (Entrez MUSK)
T17 construct: purchased Eurofin/DiscoverX
T17 sequence (O15146 24-869): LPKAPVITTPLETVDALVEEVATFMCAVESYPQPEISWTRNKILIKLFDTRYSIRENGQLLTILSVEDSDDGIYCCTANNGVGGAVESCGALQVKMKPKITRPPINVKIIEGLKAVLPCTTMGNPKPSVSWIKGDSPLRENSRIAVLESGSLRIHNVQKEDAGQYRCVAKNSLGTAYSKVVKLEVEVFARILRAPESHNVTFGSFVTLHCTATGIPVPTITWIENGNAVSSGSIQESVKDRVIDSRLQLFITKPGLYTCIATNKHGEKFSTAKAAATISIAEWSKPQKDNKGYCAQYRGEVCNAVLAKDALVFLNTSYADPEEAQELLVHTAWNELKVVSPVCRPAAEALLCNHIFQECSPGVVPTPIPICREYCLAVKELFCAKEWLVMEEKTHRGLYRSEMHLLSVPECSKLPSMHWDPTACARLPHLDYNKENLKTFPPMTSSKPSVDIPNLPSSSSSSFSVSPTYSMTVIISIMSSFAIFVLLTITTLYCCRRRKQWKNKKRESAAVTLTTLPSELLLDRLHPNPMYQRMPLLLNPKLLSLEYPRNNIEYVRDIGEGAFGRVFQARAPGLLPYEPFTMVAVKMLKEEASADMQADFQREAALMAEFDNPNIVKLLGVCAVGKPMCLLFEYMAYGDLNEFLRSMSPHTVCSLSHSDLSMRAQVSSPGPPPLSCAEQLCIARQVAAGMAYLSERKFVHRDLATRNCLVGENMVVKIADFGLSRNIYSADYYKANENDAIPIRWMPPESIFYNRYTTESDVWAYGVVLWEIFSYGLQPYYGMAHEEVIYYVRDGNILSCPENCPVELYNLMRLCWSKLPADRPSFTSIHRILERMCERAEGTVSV
From the text: as §1, §2, §3, §4, §5

[18] = target: T18, 384 kinases from the human genome (Homo sapiens, UniProt Q86Y07); conditions: kinase VRK2 (Entrez VRK2)
T18 construct: purchased Eurofin/DiscoverX
T18 sequence (Q86Y07 whole entry): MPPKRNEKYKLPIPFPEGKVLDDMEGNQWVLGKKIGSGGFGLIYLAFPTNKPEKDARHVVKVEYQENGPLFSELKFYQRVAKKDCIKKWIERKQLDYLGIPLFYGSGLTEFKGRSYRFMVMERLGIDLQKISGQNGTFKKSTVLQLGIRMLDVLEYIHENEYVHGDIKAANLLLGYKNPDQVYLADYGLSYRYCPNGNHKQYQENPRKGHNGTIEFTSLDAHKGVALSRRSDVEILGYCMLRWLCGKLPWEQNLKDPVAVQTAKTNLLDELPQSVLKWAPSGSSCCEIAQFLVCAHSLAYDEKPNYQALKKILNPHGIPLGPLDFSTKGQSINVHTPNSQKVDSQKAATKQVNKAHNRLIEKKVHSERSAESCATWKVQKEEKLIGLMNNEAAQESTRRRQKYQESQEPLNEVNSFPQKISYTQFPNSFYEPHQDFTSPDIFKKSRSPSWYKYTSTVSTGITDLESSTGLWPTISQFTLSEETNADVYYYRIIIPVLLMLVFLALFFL
From the text: as §1, §2, §3, §4, §5

[19] = target: T19, 384 kinases from the human genome (Homo sapiens, UniProt Q9BX84); conditions: kinase TRPM6 (Entrez TRPM6)
T19 construct: purchased Eurofin/DiscoverX
From the text: as §1, §2, §3, §4, §5

[20] = target: T20, 384 kinases from the human genome (Homo sapiens, UniProt P53667); conditions: kinase LIMK1 (Entrez LIMK1)
T20 construct: purchased Eurofin/DiscoverX
From the text: as §1, §2, §3, §4, §5

[21] = target: T21, 384 kinases from the human genome (Homo sapiens, UniProt O95819); conditions: kinase MAP4K4 (Entrez MAP4K4)
T21 construct: purchased Eurofin/DiscoverX
From the text: as §1, §2, §3, §4, §5

[22] = target: T22, 384 kinases from the human genome (Homo sapiens, UniProt Q8IY84); conditions: kinase NIM1 (Entrez MGC42105)
T22 construct: purchased Eurofin/DiscoverX
T22 sequence (Q8IY84 whole entry): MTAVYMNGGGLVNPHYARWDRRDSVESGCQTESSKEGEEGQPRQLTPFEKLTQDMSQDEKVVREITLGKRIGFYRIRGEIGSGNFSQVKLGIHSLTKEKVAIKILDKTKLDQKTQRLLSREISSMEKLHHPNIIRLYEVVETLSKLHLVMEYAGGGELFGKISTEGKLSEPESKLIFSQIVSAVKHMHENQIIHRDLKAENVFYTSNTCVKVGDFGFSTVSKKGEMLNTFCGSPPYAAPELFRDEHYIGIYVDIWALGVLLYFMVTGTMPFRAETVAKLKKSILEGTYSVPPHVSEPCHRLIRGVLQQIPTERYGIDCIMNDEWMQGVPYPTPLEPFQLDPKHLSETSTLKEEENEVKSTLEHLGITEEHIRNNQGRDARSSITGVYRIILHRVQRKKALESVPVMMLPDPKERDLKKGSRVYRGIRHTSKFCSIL
From the text: as §1, §2, §3, §4, §5

[23] = target: T23, 384 kinases from the human genome (Homo sapiens, UniProt O14757); conditions: kinase CHEK1 (Entrez CHEK1)
T23 construct: purchased Eurofin/DiscoverX
From the text: as §1, §2, §3, §4, §5

[24] = target: T24, 384 kinases from the human genome (Homo sapiens, UniProt Q13523); conditions: kinase PRP4 (Entrez PRPF4B)
T24 construct: purchased Eurofin/DiscoverX
From the text: as §1, §2, §3, §4, §5

[25] = target: T25, 384 kinases from the human genome (Homo sapiens, UniProt Q13131); conditions: kinase AMPK-alpha1 (Entrez PRKAA1)
T25 construct: purchased Eurofin/DiscoverX
T25 sequence (Q13131 whole entry): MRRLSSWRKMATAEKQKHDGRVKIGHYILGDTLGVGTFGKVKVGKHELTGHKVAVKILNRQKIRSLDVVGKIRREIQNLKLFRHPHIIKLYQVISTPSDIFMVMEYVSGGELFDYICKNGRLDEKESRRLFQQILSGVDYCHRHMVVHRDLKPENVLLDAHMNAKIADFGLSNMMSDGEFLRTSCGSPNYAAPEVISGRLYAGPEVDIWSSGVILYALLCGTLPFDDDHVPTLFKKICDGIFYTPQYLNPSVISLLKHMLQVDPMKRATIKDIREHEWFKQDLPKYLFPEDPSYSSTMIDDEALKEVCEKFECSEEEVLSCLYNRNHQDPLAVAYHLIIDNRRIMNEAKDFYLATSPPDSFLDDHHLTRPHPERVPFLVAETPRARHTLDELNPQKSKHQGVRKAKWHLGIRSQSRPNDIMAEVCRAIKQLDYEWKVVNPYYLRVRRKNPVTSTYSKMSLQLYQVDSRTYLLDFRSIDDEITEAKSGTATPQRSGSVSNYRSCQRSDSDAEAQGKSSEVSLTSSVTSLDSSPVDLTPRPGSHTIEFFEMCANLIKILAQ
From the text: as §1, §2, §3, §4, §5

[26] = target: T26, 384 kinases from the human genome (Homo sapiens, UniProt Q9Y6E0); conditions: kinase MST3 (Entrez STK24)
T26 construct: purchased Eurofin/DiscoverX
From the text: as §1, §2, §3, §4, §5

CC(C)C(=O)N1CCN(c2ccc(NC(=O)c3cc4ccccc4o3)cc2Cl)CC1 [Compound 21]
Percent Control [1]: 94% | Percent Control [2]: 100% | Percent Control [3]: 88% | Percent Control [4]: 83% | Percent Control [5]: 89% | Percent Control [6]: 76% | Percent Control [7]: 100% | Percent Control [8]: 99% | Percent Control [9]: 100% | Percent Control [10]: 93% | Percent Control [11]: 93% | Percent Control [12]: 78% | Percent Control [13]: 100% | Percent Control [14]: 96% | Percent Control [15]: 84% | Percent Control [16]: 100% | Percent Control [17]: 96% | Percent Control [18]: 88% | Percent Control [19]: 81% | Percent Control [20]: 79% | Percent Control [21]: 66% | Percent Control [22]: 77% | Percent Control [23]: 92% | Percent Control [24]: 100% | Percent Control [25]: 99% | Percent Control [26]: 84%
